Assay results published in the NIST ThermoML archive (doi:10.1021/je300312c).
Where “and” joins values, the source holds several entries; their conditions need not be identical. Equal values may be shown once.

How the values were obtained:
[1] = for vapor or sublimation pressure: Transpiration method
[2] = Molar enthalpy of transition or fusion; settings: Crystal; DSC

CCn1cnc2ccccc21 [1-ethyl-1H-benzimidazole]
[1], Liquid
Settings | vapor or sublimation pressure [kPa]
328.8 K | 0.00273
331.8 K | 0.00334
334.3 K | 0.0041
336.7 K | 0.00481
339.2 K | 0.00591
341.7 K | 0.00714
343.7 K | 0.00826
346.7 K | 0.01029
349.1 K | 0.01206
351.7 K | 0.01365
353.9 K | 0.01678
356.7 K | 0.01954
358.9 K | 0.02439
361.2 K | 0.02801
363.9 K | 0.03343
366.6 K | 0.03948
368.9 K | 0.04573
372.1 K | 0.05679
375.1 K | 0.06706

CCCn1cnc2ccccc21 [1-propyl-1H-benzimidazole]
[1], Liquid
Settings | vapor or sublimation pressure [kPa]
326.7 K | 0.00166
329.1 K | 0.00202
331.7 K | 0.00262
333.9 K | 0.00298
334.3 K | 0.00312
336.6 K | 0.00377
339.2 K | 0.0047
341.4 K | 0.00546
344.2 K | 0.00671
346.9 K | 0.00797
349.3 K | 0.00969
351.8 K | 0.01262
354.3 K | 0.01444
356.8 K | 0.01719
359.3 K | 0.01949
361.8 K | 0.02422
364.3 K | 0.02965
366.6 K | 0.03507
369.3 K | 0.0417
372.4 K | 0.05004
375.9 K | 0.06251

CCCCCn1cnc2ccccc21 [1-pentyl-1H-benzimidazole]
[1], Liquid
Settings | vapor or sublimation pressure
324.7 K | 0.00028 kPa
329.1 K | 0.00041 kPa
332 K | 0.00054 kPa
335.1 K | 0.00073 kPa
338.3 K | 0.0009 kPa
341.2 K | 0.00118 kPa
342.2 K | 0.00124 kPa
344 K | 0.00158 kPa
347.3 K | 0.00203 kPa
350.1 K | 0.00245 kPa
350.3 K | 0.00238 kPa
353.2 K | 0.00303 kPa
353.3 K | 0.00329 kPa
356.2 K | 0.00402 kPa
356.6 K | 0.00437 kPa
359.4 K | 0.00534 kPa
361.7 K | 0.00609 kPa and 0.0063 kPa
364.3 K | 0.00768 kPa and 0.0074 kPa
366.7 K | 0.00884 kPa
369.7 K | 0.0109 kPa
372.8 K | 0.0129 kPa
375.8 K | 0.01595 kPa

Cn1cnc2ccccc21 [1-methylbenzimidazole]
Settings | Molar enthalpy of transition or fusion [kcal/mol]
[2] | 3.23

[1]
Settings | Normal melting temperature [°C] | vapor or sublimation pressure [kPa]
300.7 K, Crystal | – | 0.0002
303.2 K, Crystal | – | 0.00026
305.6 K, Crystal | – | 0.00034
308.1 K, Crystal | – | 0.00046
311 K, Crystal | – | 0.00061
313.7 K, Crystal | – | 0.00082
314.2 K, Crystal | – | 0.00087
314.2 K, Liquid | – | 0.00115
316.6 K, Liquid | – | 0.00139
316.7 K, Crystal | – | 0.00112
319 K, Liquid | – | 0.00172
319.6 K, Crystal | – | 0.00154
321.5 K, Liquid | – | 0.00209
322.5 K, Crystal | – | 0.00213
324.5 K, Crystal | – | 0.00249
324.5 K, Liquid | – | 0.00278
325.5 K, Crystal | – | 0.0027
326.9 K, Crystal | – | 0.00316
326.9 K, Liquid | – | 0.00332
329.5 K, Liquid | – | 0.00402
331.5 K, Liquid | – | 0.0046
334.5 K, Liquid | – | 0.00598
335.9 K, Liquid | – | 0.00673
336.9 K, Liquid | – | 0.00709
337.5 K, Liquid | – | 0.00742
339.6 K, Liquid | – | 0.00868
341.6 K, Liquid | – | 0.01014
344.4 K, Liquid | – | 0.01267
347.2 K, Liquid | – | 0.0155
349.4 K, Liquid | – | 0.01858
351.8 K, Liquid | – | 0.02168
354.1 K, Liquid | – | 0.02462
354.4 K, Liquid | – | 0.0258
356.5 K, Liquid | – | 0.029
358.9 K, Liquid | – | 0.03371
361.3 K, Liquid | – | 0.0389
364 K, Liquid | – | 0.04752
366.8 K, Liquid | – | 0.0558
368.1 K, Liquid | – | 0.06162
369.4 K, Liquid | – | 0.06627
372.6 K, Liquid | – | 0.07877
374.5 K, Liquid | – | 0.08885
376 K, Liquid | – | 0.09738
Crystal, DTA | 60.1 | –
